Our source for the Activity values is ChEMBL document CHEMBL3124884, “Leporizines A-C: epithiodiketopiperazines isolated from an Aspergillus species” (J Nat Prod, 2013).

The source made the active and inactive calls. The calls are words filed in the database; no cut-off is given here.

The test system of data set [1] is Cystic fibrosis transmembrane conductance regulator (Homo sapiens), P13569 [F508del]. Nature of the data set: Activity at CFTR F508del mutant (unknown origin) expressed in Fischer rat thyroid epithelial cells co-expressing YFP-H148Q/I152L assessed as loss of baseline transepithelial resistance at 10 uM after 16 to 20 mins by conductance corrector assay. The settings on record: Epithelial cell. In kind it is cell-based.
Sequence of Cystic fibrosis transmembrane conductance regulator (Homo sapiens), P13569 [F508del] (P13569 as listed by the source): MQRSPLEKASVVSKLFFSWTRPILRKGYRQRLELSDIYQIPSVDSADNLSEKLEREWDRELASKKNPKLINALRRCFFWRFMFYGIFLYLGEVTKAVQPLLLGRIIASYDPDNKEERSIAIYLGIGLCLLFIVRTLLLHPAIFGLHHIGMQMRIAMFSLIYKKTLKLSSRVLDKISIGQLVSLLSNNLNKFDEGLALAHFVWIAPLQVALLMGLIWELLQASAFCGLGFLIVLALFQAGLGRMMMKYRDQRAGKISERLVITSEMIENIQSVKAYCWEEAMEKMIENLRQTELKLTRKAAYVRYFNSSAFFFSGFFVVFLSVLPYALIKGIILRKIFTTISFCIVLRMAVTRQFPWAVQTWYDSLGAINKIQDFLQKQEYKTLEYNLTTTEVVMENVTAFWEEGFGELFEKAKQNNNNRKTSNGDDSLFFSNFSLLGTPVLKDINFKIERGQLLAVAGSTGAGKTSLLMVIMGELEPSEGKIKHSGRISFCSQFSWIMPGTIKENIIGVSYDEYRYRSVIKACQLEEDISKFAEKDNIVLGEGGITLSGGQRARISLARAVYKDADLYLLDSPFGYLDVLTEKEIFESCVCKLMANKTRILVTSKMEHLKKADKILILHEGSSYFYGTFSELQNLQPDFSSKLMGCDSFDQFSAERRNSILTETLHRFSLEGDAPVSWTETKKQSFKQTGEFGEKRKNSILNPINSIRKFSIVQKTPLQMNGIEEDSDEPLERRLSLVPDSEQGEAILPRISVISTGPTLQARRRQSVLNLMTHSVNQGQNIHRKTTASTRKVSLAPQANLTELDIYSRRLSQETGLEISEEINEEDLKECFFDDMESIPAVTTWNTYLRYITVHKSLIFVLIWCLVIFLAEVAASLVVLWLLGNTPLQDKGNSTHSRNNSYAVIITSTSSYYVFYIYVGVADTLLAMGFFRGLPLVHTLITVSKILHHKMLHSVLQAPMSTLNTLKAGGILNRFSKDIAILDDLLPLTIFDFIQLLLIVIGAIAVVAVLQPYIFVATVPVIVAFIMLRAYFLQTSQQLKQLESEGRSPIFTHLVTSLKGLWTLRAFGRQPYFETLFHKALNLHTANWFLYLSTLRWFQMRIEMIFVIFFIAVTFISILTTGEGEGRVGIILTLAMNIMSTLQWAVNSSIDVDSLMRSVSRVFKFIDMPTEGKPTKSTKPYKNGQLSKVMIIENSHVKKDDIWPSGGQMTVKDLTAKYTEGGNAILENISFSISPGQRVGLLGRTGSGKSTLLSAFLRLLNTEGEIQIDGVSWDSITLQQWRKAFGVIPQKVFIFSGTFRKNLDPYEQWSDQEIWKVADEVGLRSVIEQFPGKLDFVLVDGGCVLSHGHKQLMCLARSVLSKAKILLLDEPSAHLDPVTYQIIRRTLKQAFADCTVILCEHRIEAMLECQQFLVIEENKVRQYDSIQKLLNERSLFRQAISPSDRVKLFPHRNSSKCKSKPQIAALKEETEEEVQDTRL

The test system is the same in data set [2]. The data set is described as follows: Activity at CFTR F508del mutant (unknown origin) expressed in Fischer rat thyroid epithelial cells co-expressing YFP-H148Q/I152L assessed as loss of baseline transepithelial resistance at >5 uM after 16 to 20 mins by conductance corrector assay. Format: cell-based. The settings on record: Epithelial cell.
The test system is the same in data set [3]. Nature of the data set: Activity at CFTR F508del mutant (unknown origin) expressed in Fischer rat thyroid epithelial cells co-expressing YFP-H148Q/I152L assessed as forskolin/PG-01-induced increase in conductance reversible effect at 10 to 20 uM after 16 to 20 mins by conductance corrector assay in presence of CFInh-172. In kind it is cell-based. The settings on record: Epithelial cell.

Data set [4] shares this test system. Nature of the data set: Activity at CFTR F508del mutant (unknown origin) expressed in Fischer rat thyroid epithelial cells co-expressing YFP-H148Q/I152L assessed as forskolin/PG-01-induced increase in conductance reversible effect at <= 5 uM after 16 to 20 hrs by conductance corrector assay. The settings on record: Epithelial cell.
The test system is the same in data set [5]. Nature of the data set: Activity at CFTR F508del mutant (unknown origin) expressed in Fischer rat thyroid epithelial cells co-expressing YFP-H148Q/I152L assessed as forskolin/PG-01-induced increase in conductance reversible effect at >5 uM after 16 to 20 mins by conductance corrector assay. Format: cell-based. The settings on record: Epithelial cell.
The next data set relates to HepG2. Nature of the data set: Cytotoxicity against human HepG2 cells. In kind it is cell-based.
Data set [6] concerns Cystic fibrosis transmembrane conductance regulator (Homo sapiens), P13569 [F508del]. The data set is described as follows: Activity at CFTR F508del mutant (unknown origin) expressed in Fischer rat thyroid epithelial cells co-expressing YFP-H148Q/I152L assessed as forskolin/PG-01-induced increase in conductance reversible effect at 2.5 to 20 uM after 16 to 20 mins by conductance corrector assay. In kind it is cell-based. The settings on record: Epithelial cell.

Data set [7] has the same test system. The data set is described as follows: Activity at CFTR F508del mutant (unknown origin) expressed in Fischer rat thyroid epithelial cells co-expressing YFP-H148Q/I152L assessed as loss of baseline transepithelial resistance at 2.5 to 20 uM after 16 to 20 mins by conductance corrector assay. The settings on record: Epithelial cell. In kind it is cell-based.

Turning to `COc1ccc(Cl)cc1Nc1nc(-c2sc(NC(=O)C(C)(C)C)nc2C)cs1`, in data set [1], the outcome was Active.
For the molecule `C[C@@H]1OC2=C(C(=O)C3(O)C(C2)N2C(=O)[C@@]45SS[C@@]2(C(=O)N4[C@H]2Nc4ccccc4C2(O)[C@H]5O)[C@@H]3O)C1(C)C` (some centres undefined), the result in data set [2], in data set [3] and in data set [5] was Active. Also, the result in data set [4] was inactive. Also, the Activity result in the data set with HepG2 is “Toxic”.
Turning to `CS[C@]12C(=O)N3[C@H]4Nc5ccccc5C4(O)[C@@H](O)[C@@]3(SC)C(=O)N1C1CC3=C(C(=O)C1(O)[C@H]2O)C(C)(C)[C@H](C)O3` (some centres undefined), the outcome in data set [6] and in data set [7] was inactive. The Activity result in the data set with HepG2 is recorded as “Non-toxic”.
Consider `C[C@@H]1OC2=C(C(=O)C3(O)C(C2)N2C(=O)[C@@]45SSS[C@@]2(C(=O)N4[C@H]2Nc4ccccc4C2(O)[C@H]5O)[C@@H]3O)C1(C)C` (some centres undefined), for which the result in data set [2], in data set [3] and in data set [5] was Active. In data set [4], the outcome was inactive. In addition, in the data set on HepG2, the Activity entry is on record as “Toxic”.
